# Patent US20220401414A1, “TREATMENT AND PREVENTION OF A NEURODEGENERATIVE DISORDER” (Inflazome Limited, priority 2019, published 2022)
# System: 6-OHDA mouse model of Parkinson's disease
# Assay: Studies C and D: amphetamine-induced ipsilateral rotations in the 6-OHDA mouse model
# Assay type: in vivo, C57BL6 mice
# Conditions: Study D, 3 mg/kg oral daily, day 21 after 6-OHDA (12 μg)
# Method: To determine the oral efficacy of the compound of formula (I) in the 6-OHDA mouse model of Parkinson's disease.
# 8-week-old C57BL6 male mice (obtained from ARC, Perth, Australia) were housed under a 12-h light cycle in a SPF climate-controlled facility with food and water provided ad libitum for two weeks prior to study initiation. For treatment with the compound of formula (I), mice were dosed via oral gavage. Ten (10) mice in each group were dosed at 3 or 1 mg/kg, starting the day before (24 hr prior) stereotaxic surgery, and then QD until sacrifice.
# 6-OHDA (Sigma) was prepared immediately prior to surgeries. A sterile saline (0.9%) solution containing ascorbic acid (0.2%) was used as the vehicle to dissolve 6-OHDA. […] In order to inject a final concentration of 12 μg into the right striatum, a working stock of 6 mg/ml was made injecting a final volume of 2 μl.
# Mice were anaesthetized using ketamine (100 mg/kg, i.p.) and xylazine (10 mg/kg i.p.)
# anesthesia and were placed into a stereotactic frame with nose and ear bars specially adapted for mice. The lesion was performed using a 5 μl Hamilton syringe to deliver either vehicle or 6-OHDA (12 μg) at the following coordinates relative to bregma: AP: −1.2 mm; ML: −1.7 mm; DV: 3.5 mm into the right dorsal striatum according to the stereotaxic atlas (“The mouse brain in stereotaxic coordinates” by Paxinos and Franklin, 1997). After drilling a 1 mm burr-hole in the skull, a 2 μl volume of solution was infused at the target site at the rate of 0.5 μl per minute. The needle was held in place for at least 5 minutes after injection to minimize retrograde flow along the needle tract. Mice were administered a subcutaneous injection of sterile Ringer's solution to is facilitate recovery and were placed on a heat-pad until complete recovery from anesthesia.
# Amphetamine-induced ipsilateral rotations were performed at day 21 post-surgery. Mice were injected with 2 mg/kg of D-amphetamine and placed in circular glass bowls.
# After an acclimatization period of five minutes, the net ipsilateral rotations over ten minutes were recorded and counted. Quantitation was performed from recorded videos by an investigator blinded to the treatment groups.
# The aim of study D was to compare the neuroprotective efficacy of the compound of formula (I) with MCC95o in the mouse unilateral 6-OHDA model at 3 mg/kg. The amphetamine-induced ipsilateral rotations and striatal dopamine (DA) levels were assessed, using a protocol identical to that used for study C, with ten (10) mice in each group being dosed at 3 mg/kg for each drug, starting the day before (24 hr prior) stereotaxic surgery, and then daily throughout until sacrifice.
structure (smiles),measurement,value
"CC(C)(O)c1coc(S(=O)(=O)NC(=O)Nc2c3c(cc4c2CCC4)CCC3)c1 [MCC950, reference compound]",reduction in amphetamine-induced rotations relative to the 6-OHDA untreated group,55%
